According to US20250346890A1, “LEUKEMIA TREATMENT” (Deutsches Krebsforschungszentrum, priority 2019, published 2025):
Values belong to the molecule of their own block, whether it stands above or below them.

Experiments:
[1] = system: Smad1; assay: Western blot of pSmad1 and tSmad1 in THP-1 cells; type: cell-based, human; conditions: THP-1 cells treated with RSPO2 siRNA plus inhibitor
Protocol: Cultured cells were rinsed with cold PBS and lysed in Triton lysis buffer ([…] Tris-Cl, pH 7.5, 1% Triton X-100, 150 mM NaCl, 1 mM EDTA, 1 mM EGTA, 1 mM β-glycerophosphate, 1 mM Na3 VO4) or RIPA buffer with complete Protease Inhibitor Cocktail (Roche 11697498001). Lysates were mixed with Laemmli buffer with β-mercaptoethanol and boiled at 95° C. for 5 min to prepare SDS-PAGE samples. Western blot images were acquired with SuperSignal West pico ECL (ThermoFisher 34580) or Clarity Western ECL (Biorad 1705061) using LAS-3000 system (FujiFilm). Quantification of blots was done using ImageJ software.
(§1) THP-1 cells were treated with 0.3, 1.0 and 3.0 μg ml^−1 goat polyclonal anti-RSPO2 antibodies (R&D systems AF3266) or goat polyclonal GFP antibodies (ABIN 100085). After 48 hours, medium was replaced including fresh antibodies—and incubated another 24 hours. Western blot analysis and FACS analyses were performed as discussed above.

[2] = system: THP-1 cells; assay: Monocyte-macrophage differentiation of THP-1 cells (FACS / qRT-PCR of CD14, CD11B); type: cell-based, human
Protocol: Cultured cells were lysed in Macherey-Nagel RAI buffer containing 1% β-mercaptoethanol and total RNAs were isolated using NucleoSpin RNA isolation kit (Macherey-Nagel 740955). Reverse transcription and PCR amplification were performed. Primers used in this study are listed in Supplementary Table 1. Graphs show relative gene expressions to GAPDH. […] Statistical analyses were performed using PRISM7 software with unpaired t-test or one-way ANOVA test.
For analyzing macrophage differentiation of THP-1, cells were harvested, pelleted and resuspended in ice-cold blocking buffer (PBS supplemented with 1% BSA and 0.1% NaN3). Cells were treated with Fc Receptor Binding Inhibitor as recommended by the manufacturer (eBioscience 14916173) and stained directly with FITC/APC-conjugated antibodies diluted in blocking buffer or with non-conjugated primary antibodies followed by fluorochrome-labeled secondary antibodies. Isotype-matched antibodies were used as controls. Dead cells were excluded by counterstaining with propidium iodide. For analyzing apoptosis of THP-1, cells were fixed in 4% PFA, permeabilized by MeOH and blocked with PBS supplemented with 1% BSA and 0.1% Tween-20. Cells were stained with anti-active Caspase-3 antibody and fluorochrome-labeled secondary antibody. FACS Samples were analyzed with FACSCalibur or FACSCanto (BD Biosciences). 10,000 events per samples were acquired, and results were processed with Cell Quest or FACSDiva software (BD Biosciences). For BMP4 stimulation, cells were treated with 5 and 25 ng ml^−1 recombinant human BMP4 protein (R&D systems 314-BP). 100, 300 and 1000 nM LDN […] (Tocris 6053) were used for rescue assay. For the THP-1 cell number quantification and differentiation validation in vivo, bone marrow cells were harvested from tibias of NSG mice and red blood cells were removed by ACK Lysing Buffer (Gibco A1049201). Cells were stained and analyzed as above. Here, 50,000 PI-negative events per samples were acquired.
as §1
(§2) The sequences of shRSPO2 and shControl (Table 1) were synthesized, inserted into the transfer plasmid Tet-pLKO-puro (Addgene 21915) and validated by sequencing. Lentivirus was produced with the 3rd generation lentiviral system according to the protocol available at the Trono lab as described (www.epfl.ch/labs/tronolab/). THP-1 cells were infected with lentivirus with 8 μg ml^−1 Polybrene (Sigma TR-1003) and selected with 0.5 μg ml^−1 puromycin (Calbiochem 540411). Single cell clones were obtained by limiting dilutions. The shRNA expression of clones was validated by monitoring RSPO2 expression after doxycycline treatment (1.0 μg ml^−1) for 3 days.

[3] = system: BMP4 signaling; assay: BRE reporter assay in HEPG2 cells stimulated by BMP4; type: cell-based, human; conditions: HEPG2 cells
Protocol: BRE luciferase assays were executed using 300,000 ml^−1 of HEPG2 cells in 24-well plates. PGL3-BRE-Luciferase (500 ng ml^−1) and pRL-TK-Renilla plasmids (50 ng ml^−1) were transfected using Lipofectamine 3000. After 24 hours, cells were serum starved 2 hours and stimulated 14-16 hours with 80 ng ml^−1 recombinant human BMP4 protein (R&D systems 314-BP) along with AP tagged RSPO1-4 or flag tagged RSPO1-3 conditioned medium. Luciferase activity was measured with the Dual luciferase reporter assay system (Promega E1960). Firefly luminescence (BRE) was normalized to Renilla. TOPFlash luciferase assays were carried out as previously described (Berger et al. (2017), EMBO Rep 18, 712-725, doi: 10.15252/embr.201643585). […] Statistical analyses were made with the PRISM7 software using unpaired t-test or one-way ANOVA test. Not significant (ns) P>0.05, *P<0.05, **P<0.01, ***P<0.001, and ****P<0.0001.

[4] = system: Xenopus embryos; assay: Crispr-Cas9-mediated Xenopus rspo2 knockout embryos; type: in vivo, Xenopus tropicalis
[5] = system: THP-1 cells; assay: THP-1 cell growth and colony formation assay; type: cell-based, human; conditions: TetOn-shRSPO2 clones, Dox treatment
Protocol: as §2
1,000 cells per well of Dox-inducible THP-1 clones were seeded into 24-well plates in RPMI+10% FBS, 1% penicillin-streptomycin, 1 mM sodium pyruvate, 2 mM L-glutamine and 0.5% methylcellulose, with or without Doxycycline (1 μg ml^−1). After 8 days incubation, microscopic dark field images were taken using LEICA DMIL microscope/Canon DS126311 camera.

[6] = system: THP-1 cells; assay: THP-1 AML xenograft in NSG mice; type: in vivo, mouse
Protocol: For analyzing macrophage differentiation of THP-1, cells were harvested, pelleted and resuspended in ice-cold blocking buffer (PBS supplemented with 1% BSA and 0.1% NaN3). […] Isotype-matched antibodies were used as controls. Dead cells were excluded by counterstaining with propidium iodide. For analyzing apoptosis of THP-1, cells were fixed in 4% PFA, permeabilized by MeOH and blocked with PBS supplemented with 1% BSA and 0.1% Tween-20. […] FACS Samples were analyzed with FACSCalibur or FACSCanto (BD Biosciences). 10,000 events per samples were acquired, and results were processed with Cell Quest or FACSDiva software (BD Biosciences). […] For the THP-1 cell number quantification and differentiation validation in vivo, bone marrow cells were harvested from tibias of NSG mice and red blood cells were removed by ACK Lysing Buffer (Gibco A1049201). Cells were stained and analyzed as above. Here, 50,000 PI-negative events per samples were acquired.
NOD SCID gamma (NSG) mice were recruited from the Center for Preclinical Research, DKFZ, Heidelberg. […] Randomized mouse cohorts (n=6-7 mice/group) were treated with Dox or vehicle throughout the study. Treatment started 3 days prior to cell transplantation via drinking water consisting 1 mg/ml Dox and 5% saccharose, or 5% saccharose only. […] 500,000 cells in 100 μl PBS were injected intravenously into the lateral tail vein of 7-8-week-old female mice. Besides regular health checks, mouse body weight was taken twice per week throughout the experiment. Heparinized blood was collected from the tail vein at days 9 and 22 after transplantation. Terminal blood collection was performed under isoflurane anesthesia followed by cervical dislocation. Necropsies were taken as indicated or when mice reached a stop criterion of the German Society of Laboratory Animal Sciences (GV-SOLAS), until here defined as survival. All mouse experiments were in accordance with the approved guidelines of the local Governmental Committee for Animal Experimentation (RP Karlsruhe, Germany, license G140/19).
For each reaction, 25 ng genomic DNA was used. A standard curve was generated with genomic DNA extracted from NSG mice blood containing known numbers of THP-1 cells and used for converting qPCR fluorescent signals to actual cell numbers. Normal NSG mice blood and nuclease free water were used as negative controls.

[7] = target: T1, ALK3RD (Homo sapiens, UniProt P36894, Q233D); assay: BRE reporter assay in HEPG2 cells with constitutively active ALK3; type: cell-based; conditions: RSPO treatment
T1 construct: expressed in transfected cells; host or cells: HEPG2
Text: Alkaline phosphatase (AP) fusions with RSPOs (human RSPO1^ΔC-AP-pCDNA3, RSPO2^ΔC-AP-pCDNA3, RSPO2^ΔC-AP-pCS2+, RSPO3^ΔC-AP-pCDNA3, murine RSPO4^ΔC-pCDNA3) were generated by replacing the C-terminal domain (ΔC) by AP and used to produce conditioned media. Human RSPO2 wild-type (RSPO2), Furin1 and Furin2 deletion mutants (RSPO2^ΔFU), and TSP1 domain deletion mutant (RSPO2^ΔTSP) are ORFs lacking the C-terminal domain, C-terminally tagged with a Flag-tag and subcloned into pCS2+. R1-TSP^R2, R1-TSP^R2-AP and R1-TSP^R2-Flag plasmids were generated by fusion PCR and cloned in pCS2+. Conditioned media from all RSPO constructs were adjusted to equal concentration by western blot and AP activity measurement, and further validated by WNT reporter assay using HEK293T cells. The extracellular domain of ALK3 (ALK3^ECD) was subcloned in AP-pCS2+ for generating conditioned medium and used in in vitro binding assays. Constitutively active forms of ALK2,3,6 (ALK^QD) were generated by Gln-Asp mutations as described in Fujii et al. (1999), Mol Biol Cell 10, 3801-3813, doi: 10.1091/mbc.10.11.3801. HA-tagged ALK3 was a gift from Dr. D. Koinuma (Goto et al. (2007), J Biol Chem 282, 20603-20611, doi: 10.1074/jbc.M702100200). For Xenopus mRNA microinjection, Xenopus laevis BMP4-pCS2+, myc-tagged RSPO2^ΔC-myc-pCS2+, RSPO2^ΔFU-myc-pCS2+ and RSPO2^ΔTSP-myc-pCS2+ plasmids, DNALK3-pCS2+, membrane-RFP, EYFP-tagged human ALK3-pCS2+ were used for in vitro transcription. Human ZNRF3 and ZNRF3^ΔRING constructs were gifts from Dr. F. Cong (Novartis; Hao et al. (2012), Nature 485, 195-200, doi: 10.1038/nature11019), and ORFs were subcloned in flag-pCS2+ for in vitro transcription.
BRE luciferase assays were executed using 300,000 ml^−1 of HEPG2 cells in 24-well plates. PGL3-BRE-Luciferase (500 ng ml^−1) and pRL-TK-Renilla plasmids (50 ng ml^−1) were transfected using Lipofectamine 3000. […] Luciferase activity was measured with the Dual luciferase reporter assay system (Promega E1960). Firefly luminescence (BRE) was normalized to Renilla. […]

T1 sequence (P36894 24-532 Q233D): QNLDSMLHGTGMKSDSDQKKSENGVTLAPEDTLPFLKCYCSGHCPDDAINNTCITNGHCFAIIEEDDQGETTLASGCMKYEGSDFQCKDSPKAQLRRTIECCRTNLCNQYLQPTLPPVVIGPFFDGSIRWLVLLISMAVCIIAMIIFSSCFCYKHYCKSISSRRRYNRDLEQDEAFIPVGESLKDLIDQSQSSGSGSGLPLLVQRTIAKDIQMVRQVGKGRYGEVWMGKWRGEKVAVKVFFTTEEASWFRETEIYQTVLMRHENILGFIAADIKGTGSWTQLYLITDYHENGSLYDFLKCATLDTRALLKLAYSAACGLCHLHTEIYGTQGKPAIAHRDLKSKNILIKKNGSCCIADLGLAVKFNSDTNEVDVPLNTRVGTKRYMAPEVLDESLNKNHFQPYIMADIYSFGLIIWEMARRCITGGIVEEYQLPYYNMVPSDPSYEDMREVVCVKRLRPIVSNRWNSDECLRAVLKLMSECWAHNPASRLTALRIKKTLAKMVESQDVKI

Molecule: c1ccc2c(-c3cnn4cc(-c5ccc(N6CCNCC6)cc5)cnc34)ccnc2c1 [LDN 193189]
Smad1-phosphorylation increased by RSPO2 knockdown [1]: reverted increased Smad1-phosphorylation | monocyte-macrophage differentiation induced by siRSPO2 ([2]; THP-1 cells, siRSPO2 plus inhibitor): impaired monocyte-macrophage differentiation

Molecule: CN(C)c1cccc2c(S(=O)(=O)NCCCCCN)cccc12 [monodansylcadaverin, reference compound]
effect on inhibition of BMP signaling by RSPO2 ([3]; BMP4+RSPO2): eliminated inhibition of BMP signaling by RSPO2

Molecule: gRNA: previously established guide RNA for Crispr-Cas9 rspo2 knockout, TGACTCCATAGTATCCAGGA (SEQ ID NO:11) (listed as DNA, chemistry not given here)
embryo phenotype [4]: mildly ventralized embryos | BMP target gene expression ([4]; sizzled in situ hybridization): increased BMP target gene expression

Molecule: shRSPO2: Dox-inducible shRNA against RSPO2, SEQ ID NO:10, expressed in THP-1 clones (GACAATGGGTGTAGCCGATCTCGAGATCGGCTACACCCATTGTC)
THP-1 cell growth [5]: reduced THP-1 cell growth | colony formation [5]: reduced | prolongation of disease-free survival ([6]; NSG mice injected with TetOn-shRSPO2 THP-1 cell line #1, Dox induction, still alive at reporting time): at least 2.3 fold | survival ([6]; NSG mice injected with TetOn-shRSPO2 THP-1 cell line #2, Dox induction): survived almost twice as long | tumor burden ([6]; NSG mice, TetOn-shRSPO2 THP-1 cells, Dox induction): reduced tumor burden | macrophage differentiation in bone marrow ([6]; NSG mice, both TetOn-shRSPO2 cell lines, Dox induction): enhanced macrophage differentiation | BMP signaling and monocyte-macrophage differentiation ([2]; THP-1 TetOn-shRSPO2 clones, Dox-administration): induced BMP signaling and robust monocyte-macrophage differentiation

B1: RSPO1: secreted R-spondin protein; conditioned medium or recombinant human RSPO1 (Peprotech 120-38) (protein, UniProt Q2MKA7 21-263, looked up)
R-spondin-1: SRGIKGKRQRRISAEGSQACAKGCELCSEVNGCLKCSPKLFILLERNDIRQVGVCLPSCPPGYFDARNPDMNKCIKCKIEHCEACFSHNFCTKCKEGLYLHKGRCYPACPEGSSAANGTMECSSPAQCEMSEWSPWGPCSKKQQLCGFRRGSEERTRRVLHAPVGDHAACSDTKETRRCTVRRVPCPEGQKRRKGGQGRRENANRNLARKESKEAGAGSRRRKGQQQQQQQGTVGPLTSAGPA
BMP signaling induced by constitutively active ALK3 [7]: had no effect

BMP signaling induced by constitutively active ALK3 [7]: specifically inhibited
B2: RSPO3: human R-spondin 3 protein (SEQ ID NO:2); conditioned medium or recombinant (Peprotech 120-44) (protein, listed as Homo sapiens)
chain: MHLRLISWLFIILNFMEYIGSQNASRGRRQRRMHPNVSQGCQGGCATCSDYNGCLSCKPRLFFALERIGMKQIGVCLSSCPSGYYGTRYPDINKCTKCKADCDTCFNKNFCTKCKSGFYLHLGKCLDNCPEGLEANNHTMECVSIVHCEVSEWNPWSPCTKKGKTCGFKRGTETRVREIIQHPSAKGNLCPPTNETRKCTVQRKKCQKGERGKKGRERKRKKPNKGESKEAIPDSKSLESSKEIPEQRENKQQQKKRKVQDKQKSVSVSTVH
BMP4 signaling ([3]; BMP4 stimulation, treatment with RSPO protein): decreased BMP4 signaling
